This is an account of results in patent publication US7056929B2, “Benzo[b]pyrano[3,2-h]acridin-7-one compounds” (Les Laboratoires Servier, priority 2001, dated 2006).

Data set [1] deals with Murine leukaemia L1210. The data set can be described thus: In vitro cytotoxicity on murine leukaemia L1210 (Microculture Tetrazolium Assay).
Experimental: (§2) Murine leukaemia L1210 was used in vitro. The cells are cultured in RPMI 1640 complete culture medium containing 10% foetal calf serum, 2 mM glutamine, 50 units/ml of penicillin, 50 μg/ml of streptomycin and 10 mM Hepes, pH: 7.4. The cells are distributed on microplates and exposed to the cytotoxic compounds for 4 doubling periods, or 48 hours. The number of viable cells is then quantified by means of a colorimetric assay, the Microculture Tetrazolium Assay (J. Carmichael et al., Cancer Res., 47, 936–942, (1987)). The results are expressed as IC50, the concentration of cytotoxic agent which inhibits the proliferation of the treated cells by 50%.
Data set [2] deals with Human KB-3-1 (bucal epidermoïde carcinoma) cell. The data set can be described thus: In vitro cytotoxicity on human KB-3-1 cells (procedure of Example 27).
Experimental: as §2
The test system of data set [3] is C38 adenocarcinoma of the colon. The data set can be described thus: Anti-tumour activity with respect to C38 adenocarcinoma of the colon in mice. The data set is classed as in vivo. To be noted: for T/C (tumor growth), C38: Table 3; for anti-tumour activity (% T/C): C38 s.c. in B6D2F1 mice, tumour volume. The method, then:
Tumour fragments of C38 adenocarcinoma of the colon weighing approximately 30 mg were implanted under the skin of B6D2F1 mice (Iffa Credo, France) on day 0.
After growth of the tumour, the mice were divided into control (18 animals) and treated (6 or 7 animals) groups, which were homogeneous with respect to tumour size. The products were administered by the i.v. route once per week for 3 weeks (on days 10, 17 and 24), at their Maximum Tolerated Dose (MTD), MTD/2 and MTD/4. The tumours were measured twice a week and the tumour volumes were calculated according to the following formula: volume (mm^3)=length (mm)×breadth (mm^2)/2. The anti-tumour activity is expressed as % T/C:
[formula] V0 and Vt being the initial volume of the tumour and its volume at measurement time t, respectively.
The optimum dose is the dose giving the lowest T/C value without toxicity (early death or weight loss greater than 20%).
The procedure used in the anti-tumour activity with respect to C38 adenocarcinoma is the same as the procedure described in the present application at Example 28.

The next data set concerns P388 (murine leukaemia). The data set can be described thus: Anti-tumour activity with respect to P388 leukaemia in mice. As to conditions: P388 i.p. in B6D2F1 mice, products i.v. on day 1. The format is in vivo. The method, then:
Line P388 (murine leukaemia) was supplied by the National Cancer Institute (Frederick, USA). The tumour cells (10^6 cells) were inoculated on day 0 into the peritoneal cavity of female B6D2F1 mice (Iffa Credo, France). Six mice weighing from 18 to 20 g were used in each test group. The products were administered by the intravenous route on day 1. The anti-tumour activity is expressed as % T/C: […]

The subject of data set [4] is human A549 non-small cell lung carcinoma. The data set can be described thus: Anti-tumour activity on A549 lung carcinoma in nude mice. The data set is classed as in vivo. As to conditions: A549 in pleural space of nude mice, median survival time. The method, then:
(§1) The anti-tumour activity of the compounds against the human A549 non-small cell lung carcinoma was evaluated essentially as described (Kraus-Berthier, L., Jan, M., Guilbaud, N., Naze, M., Pierré, A., and Atassi, G. Histology and sensitivity to anticancer drugs of two human non-small cell lung carcinomas implanted in the pleural cavity of nude mice. Clinical Cancer Res., 6, 297–304, 2000). Briefly, 10^6 A549 cells were implanted through the chest wall into the left pleural space of nude mice in a volume of 100 μl. Compounds were administered i.v. at three doses on days 14 and 24 after tumor graft. Animal mortality was checked daily and the anti-tumour activity was expressed as T/C %=(median survival time of treated group/median survival time of control group)×100. Results given in table 3 are the highest T/C values obtained at the maximum non-toxic dose, i.e. the optimal dose.

In data set [5] the test system is human IGROV1 ovarian carcinoma. The data set can be described thus: Anti-tumour activity on IGROV1 ovarian carcinoma in nude mice. The data set is classed as in vivo. As to conditions: IGROV1 i.p. in nude mice, 12.5 mg/kg i.v. days 4 and 14, optimal dose; median survival time. On the procedure: as §1
The anti-tumour activity of the compounds against the human IGROV1 ovarian carcinoma was evaluated essentially as described (Burbridge, M. F., Kraus-Berthier, L., Naze, M., Pierré, A., Atassi, G. and Guilbaud, N. Biological and pharmacological characterization of three models of human ovarian carcinoma established in nude mice: use of the CA125 tumor marker to predict antitumor activity. Int. J. Oncol., 15, 1155–1162, 1999). […] The anti-tumour activity was evaluated as described above for A549 lung carcinoma.

The subject of data set [6] is Murine leukaemia L1210.
Experimental: as §2
For data set [7], the system named is Human KB-3-1 (bucal epidermoïde carcinoma) cell.
Experimental: as §2
Setting [8] is: Mus musculus, L1210, read-out: IC50 (μM), Cytotoxicity on Murine L 1210 cells.
Where [9] appears, read: Homo sapiens, KB 3-1, read-out: IC50 (μM), Cytotoxicity on Human KB-3-1 (bucal epidermoïde carcinoma) cell.

pIC50: −log10 of the molar value. Where two headings read alike, the source gives them in different places. Marks after values point to notes of the source that are not given here.

As for `CCN(CC)C(=O)O[C@@H]1c2c(cc(OC)c3c(=O)c4cc5ccccc5cc4n(C)c23)OC(C)(C)[C@@H]1OC(=O)N(CC)CC` (racemic) [Example 23, (±)-cis-1-{[(Diethylamino)carbonyl]oxy}-6-methoxy-3,3,14-trimethyl-7-oxo-2,3,7,14-tetrahydro-1H-benzo[b]pyrano[3,2-h]acridin-2-yl diethylcarbamate], the IC50 (as a rule, the point on the concentration scale where inhibition reaches its midpoint) in the data set on Murine leukaemia L1210 [1] (setting [8]) came to 0.9 µM.

For the compound `Cn1c2cc3ccccc3cc2c(=O)c2c(OCCO)cc3c(c21)C=CC(C)(C)O3` [Example 1, 6(2-Hydroxyethoxy)-3,3,14-trimethyl-3,14-dihydro-7H-benzo[b]-pyrano[3,2-h]acridin-7-one], the IC50 in data set [2] (setting [9]) amounted to 0.5 µM.

Regarding `COc1cc2c(c3c1c(=O)c1cc4ccccc4cc1n3C)[C@H](OC(=O)N(C)C)[C@H](OC(=O)N(C)C)C(C)(C)O2` [Example 11, (1S,2S)-1-{[(Dimethylamino)carbonyl]oxy}-6-methoxy-3,3,14-trimethyl-7-oxo-2,3,7,14-tetrahydro-1H-benzo[b]pyrano[3,2-h]acridin-2-yl dimethylcarbamate], the “T/C (tumor growth), C38” value in data set [3] (C38, dose 25 mg/kg i.v.) is reported as 41%^a. Moreover, in data set [3] (i.v. days 10, 17 and 24, optimum dose of 25 mg/kg), the “anti-tumour activity (% T/C)” value was 41%. In addition, the IC50 turned out to be 0.4 µM in data set [2] (setting [9]) and 0.8 µM in the data set with Murine leukaemia L1210 [1] (setting [8]). Also, the pIC50 (commonly −log10 of the IC50, conventionally taken in molar units) with Murine leukaemia L1210 [1] (Mus musculus, L1210, 48 h) was 6.11.

For `COc1cc2c(c3c1c(=O)c1ccccc1n3C)C=CC(C)(C)O2` [acronycine, reference compound], the T/C entry in the data set on P388 (murine leukaemia) is “only marginally active”. Besides, the “anti-tumour activity (% T/C)” value in data set [3] (i.v. days 10, 17 and 24, optimum dose of 100 mg/kg) came to 27%.

For “(±)-cis-1,2-Dipentenoyloxy-6-methoxy-3,3,14-trimethyl-2,3,7,14-tetrahydro-1H-benzo[b]pyrano[3,2-h]acridin-7-one [Example 7]”, in data set [3] (C38, dose 25 mg/kg i.v.), the “T/C (tumor growth), C38” value was found to be 12%^a. In data set [3] (i.v. days 10, 17 and 24, optimum dose of 12.5 mg/kg), the “anti-tumour activity (% T/C)” value is 30%. Besides, the “T/C (survival), A549” value in data set [4] (12.5 mg/kg i.v. days 14 and 24, optimal dose) worked out at 218%^b. In data set [5], the “T/C (survival), IGROV1” value worked out at 148%^b. Besides, the IC50 in data set [2] (read-out: IC50 (μM), Cytotoxicity on Human KB-3-1 (bucal epidermoïde carcinoma) cell, KB-3-1 cells, procedure of Example 27, Table 2) amounted to 0.14 µM; in the data set on Murine leukaemia L1210 [1] (read-out: IC50 (μM), Cytotoxicity on Murine L 1210 cells, L1210 cells, procedure of Example 27, Table 1), 0.5 µM. Also, in the data set with Murine leukaemia L1210 [1] (L1210 cells, exposure 4 doubling periods or 48 hours), the pIC50 was 6.28.

As for “(±)-cis-1-Hydroxy-6-methoxy-2-pentenoyloxy-3,3,14-trimethyl-2,3,7,14-tetrahydro-1H-benzo[b]pyrano[3,2-h]acridin-7-one [Example 8]”, the “T/C (tumor growth), C38” value in data set [3] (C38, dose 50 mg/kg i.v.) was 15%^a. Further, the “T/C (survival), A549” value in data set [4] (25 mg/kg i.v. days 14 and 24, optimal dose) was determined as 340%^b. The values for the pIC50 (with Murine leukaemia L1210 [6]; in data set [7]) were 6.05 and 7.00, respectively.
